# Source: the NIST ThermoML archive (doi:10.1016/j.fluid.2011.06.011)
# “And” between values parts separate entries of the source, which are not always exact repeats. Identical values can stand only once. Numbers after ± are expanded uncertainties.
# Key:
# [1] = refractive index (Na D-line) (dimensionless); conditions: 101.33 kPa, Liquid, Standard Abbe refractometry
# [2] = Liquid; for speed of sound: Sing-around technique in a fixed-path interferometer; for mass density: Vibrating tube method
# [3] = xn = mol fraction of the nth substance listed; conditions: Liquid, x2 = 0; for speed of sound: Sing-around technique in a fixed-path interferometer; for mass density: Vibrating tube method
# [4] = refractive index (Na D-line) (dimensionless); xn = mol fraction of the nth substance listed; conditions: 101 kPa, Liquid, Standard Abbe refractometry, x2 = 0
smiles,measurement,setting,value
"C=CC(C)(O)CCC=C(C)C (stereo not given) [3,7-dimethyl-1,6-octadien-3-ol]",refractive index,[1]; 283.15 K,1.46659 ± 0.00049 and 1.4666 ± 0.00049
same,refractive index,[1]; 298.15 K,1.45946 ± 0.00049
same,refractive index,[1]; 313.15 K,1.45215 ± 0.00049
same,refractive index,[1]; 328.15 K,1.44473 ± 0.00049
same,speed of sound,"[2]; 283.15 K, 101 kPa",1370.6 ± 2 m/s
same,speed of sound,"[2]; 283.15 K, 101.33 kPa",1370.3 ± 2 m/s
same,mass density,"[2]; 283.15 K, 101.33 kPa",869.39 ± 0.63 kg/m3
same,mass density,"[2]; 283.15 K, 20000 kPa",880.8 ± 0.8 kg/m3
same,mass density,"[2]; 283.15 K, 25000 kPa",883.7 ± 0.9 kg/m3
same,mass density,"[2]; 283.15 K, 30000 kPa",886.1 ± 0.9 kg/m3
same,mass density,"[2]; 283.15 K, 35000 kPa",888.9 ± 0.9 kg/m3
same,mass density,"[2]; 283.15 K, 40000 kPa",891.4 ± 0.9 kg/m3
same,speed of sound,"[2]; 298.15 K, 101 kPa",1315.1 ± 2 m/s
same,speed of sound,"[2]; 298.15 K, 101.33 kPa",1313.1 ± 2 m/s
same,mass density,"[2]; 298.15 K, 101.33 kPa",857 ± 0.62 kg/m3
same,mass density,"[2]; 298.15 K, 20000 kPa",869.4 ± 0.8 kg/m3
same,mass density,"[2]; 298.15 K, 25000 kPa",872.3 ± 0.9 kg/m3
same,mass density,"[2]; 298.15 K, 30000 kPa",875.2 ± 0.9 kg/m3
same,mass density,"[2]; 298.15 K, 35000 kPa",877.9 ± 0.9 kg/m3
same,mass density,"[2]; 298.15 K, 40000 kPa",880.6 ± 0.9 kg/m3
same,speed of sound,"[2]; 313.15 K, 101.33 kPa",1260.8 ± 2 m/s
same,mass density,"[2]; 313.15 K, 101.33 kPa",844.29 ± 0.61 kg/m3
same,mass density,"[2]; 313.15 K, 20000 kPa",857.6 ± 0.8 kg/m3
same,mass density,"[2]; 313.15 K, 25000 kPa",860.9 ± 0.9 kg/m3
same,mass density,"[2]; 313.15 K, 30000 kPa",863.9 ± 0.9 kg/m3
same,mass density,"[2]; 313.15 K, 35000 kPa",866.8 ± 0.9 kg/m3
same,mass density,"[2]; 313.15 K, 40000 kPa",869.7 ± 0.9 kg/m3
same,speed of sound,"[2]; 328.15 K, 101.33 kPa",1207.6 ± 2 m/s
same,mass density,"[2]; 328.15 K, 101.33 kPa",831.31 ± 0.6 kg/m3
same,mass density,"[2]; 328.15 K, 20000 kPa",846 ± 0.8 kg/m3
same,mass density,"[2]; 328.15 K, 25000 kPa",849.3 ± 0.9 kg/m3
same,mass density,"[2]; 328.15 K, 30000 kPa",852.6 ± 0.9 kg/m3
same,mass density,"[2]; 328.15 K, 35000 kPa",855.7 ± 0.9 kg/m3
same,mass density,"[2]; 328.15 K, 40000 kPa",858.8 ± 0.9 kg/m3
CCO [ethanol],refractive index,[1]; 283.15 K,1.36546 ± 0.00031
same,refractive index,[1]; 298.15 K,1.35984 ± 0.00031
same,refractive index,[1]; 313.15 K,1.35409 ± 0.00031
same,refractive index,[1]; 328.15 K,1.34827 ± 0.00031
same,mass density,"[2]; 283.15 K, 101 kPa",798.28 ± 0.12 kg/m3
same,speed of sound,"[2]; 283.15 K, 101.33 kPa",1196.2 ± 0.7 m/s
same,mass density,"[2]; 283.15 K, 101.33 kPa",798.27 ± 0.13 kg/m3
same,mass density,"[2]; 283.15 K, 20000 kPa",812.8 ± 0.6 kg/m3
same,mass density,"[2]; 283.15 K, 25000 kPa",816.5 ± 0.6 kg/m3
same,mass density,"[2]; 283.15 K, 30000 kPa",819.8 ± 0.6 kg/m3
same,mass density,"[2]; 283.15 K, 35000 kPa",823 ± 0.6 kg/m3
same,mass density,"[2]; 283.15 K, 40000 kPa",826.1 ± 0.6 kg/m3
same,mass density,"[2]; 298.15 K, 101 kPa",785.46 ± 0.12 kg/m3
same,speed of sound,"[2]; 298.15 K, 101.33 kPa",1146.2 ± 0.7 m/s
same,mass density,"[2]; 298.15 K, 101.33 kPa",785.45 ± 0.14 kg/m3
same,mass density,"[2]; 298.15 K, 20000 kPa",801.5 ± 0.6 kg/m3
same,mass density,"[2]; 298.15 K, 25000 kPa",805.3 ± 0.6 kg/m3
same,mass density,"[2]; 298.15 K, 30000 kPa",808.8 ± 0.6 kg/m3
same,mass density,"[2]; 298.15 K, 35000 kPa",812.2 ± 0.6 kg/m3
same,mass density,"[2]; 298.15 K, 40000 kPa",815.5 ± 0.6 kg/m3
same,speed of sound,"[2]; 313.15 K, 101.33 kPa",1096.7 ± 0.7 m/s
same,mass density,"[2]; 313.15 K, 101.33 kPa",772.39 ± 0.14 kg/m3
same,mass density,"[2]; 313.15 K, 20000 kPa",789.8 ± 0.6 kg/m3
same,mass density,"[2]; 313.15 K, 25000 kPa",794 ± 0.6 kg/m3
same,mass density,"[2]; 313.15 K, 30000 kPa",797.4 ± 0.6 kg/m3
same,mass density,"[2]; 313.15 K, 35000 kPa",801 ± 0.6 kg/m3
same,mass density,"[2]; 313.15 K, 40000 kPa",804.8 ± 0.6 kg/m3
same,speed of sound,"[2]; 328.15 K, 101.33 kPa",1047 ± 0.7 m/s
same,mass density,"[2]; 328.15 K, 101.33 kPa",758.93 ± 0.15 kg/m3
same,mass density,"[2]; 328.15 K, 20000 kPa",777.8 ± 0.6 kg/m3
same,mass density,"[2]; 328.15 K, 25000 kPa",782.2 ± 0.6 kg/m3
same,mass density,"[2]; 328.15 K, 30000 kPa",786.3 ± 0.6 kg/m3
same,mass density,"[2]; 328.15 K, 35000 kPa",790 ± 0.6 kg/m3
same,mass density,"[2]; 328.15 K, 40000 kPa",793.9 ± 0.6 kg/m3
CCO [ethanol] + C=CC(C)(O)CCC=C(C)C,speed of sound,"[3]; 283.15 K, 101 kPa",1196.2 ± 0.7 m/s
same,mass density,"[3]; 283.15 K, 101 kPa",798.28 ± 0.12 kg/m3
same,mass density,"[3]; 283.15 K, 20000 kPa",812.8 ± 0.6 kg/m3
same,mass density,"[3]; 283.15 K, 25000 kPa",816.5 ± 0.6 kg/m3
same,mass density,"[3]; 283.15 K, 30000 kPa",819.8 ± 0.6 kg/m3
same,mass density,"[3]; 283.15 K, 35000 kPa",823 ± 0.6 kg/m3
same,mass density,"[3]; 283.15 K, 40000 kPa",826.1 ± 0.6 kg/m3
same,speed of sound,"[3]; 298.15 K, 101 kPa",1146.2 ± 0.7 m/s
same,mass density,"[3]; 298.15 K, 101 kPa",785.46 ± 0.12 kg/m3
same,mass density,"[3]; 298.15 K, 20000 kPa",801.5 ± 0.6 kg/m3
same,mass density,"[3]; 298.15 K, 25000 kPa",805.3 ± 0.6 kg/m3
same,mass density,"[3]; 298.15 K, 30000 kPa",808.8 ± 0.6 kg/m3
same,mass density,"[3]; 298.15 K, 35000 kPa",812.2 ± 0.6 kg/m3
same,mass density,"[3]; 298.15 K, 40000 kPa",815.5 ± 0.6 kg/m3
same,speed of sound,"[3]; 313.15 K, 101 kPa",1096.7 ± 0.7 m/s
same,mass density,"[3]; 313.15 K, 101 kPa",772.39 ± 0.13 kg/m3
same,mass density,"[3]; 313.15 K, 20000 kPa",789.8 ± 0.6 kg/m3
same,mass density,"[3]; 313.15 K, 25000 kPa",794 ± 0.6 kg/m3
same,mass density,"[3]; 313.15 K, 30000 kPa",797.4 ± 0.6 kg/m3
same,mass density,"[3]; 313.15 K, 35000 kPa",801 ± 0.6 kg/m3
same,mass density,"[3]; 313.15 K, 40000 kPa",804.8 ± 0.6 kg/m3
same,speed of sound,"[3]; 328.15 K, 101 kPa",1047 ± 0.7 m/s
same,mass density,"[3]; 328.15 K, 101 kPa",758.93 ± 0.13 kg/m3
same,mass density,"[3]; 328.15 K, 20000 kPa",777.8 ± 0.6 kg/m3
same,mass density,"[3]; 328.15 K, 25000 kPa",782.2 ± 0.6 kg/m3
same,mass density,"[3]; 328.15 K, 30000 kPa",786.3 ± 0.6 kg/m3
same,mass density,"[3]; 328.15 K, 35000 kPa",790 ± 0.6 kg/m3
same,mass density,"[3]; 328.15 K, 40000 kPa",793.9 ± 0.6 kg/m3
same,refractive index,[4]; 283.15 K,1.36546 ± 0.00031
same,refractive index,[4]; 298.15 K,1.35984 ± 0.00031
same,refractive index,[4]; 313.15 K,1.35409 ± 0.00031
same,refractive index,[4]; 328.15 K,1.34827 ± 0.00031
